Earlier results on one compound are cited in patent US6645913B2, “Adjuvant composition” (Cognis Corporation, priority 1999, dated 2003).

Structures are written as SMILES.

For the data set the following is noted: glyphosate in acid form.

Turning to `O=C(O)CNCP(=O)(O)O` [glyphosate, N-phosphonomethylglycine], the water solubility entry was “about 1.2%”.
